Each molecule was assayed against T1, LRRK2 wild type (recombinant human, catalytic domain amino acids 970-2527, GST-tagged) (Homo sapiens, UniProt Q5S007) (assay: LRRK2 wild type protein kinase assay ([γ-33P] ATP, peptide substrate […]), IC50). Settings: LRRK2 (variant not given); read-out: Potency score, LRRK2 IC50.
T1 construct: The wild type used was recombinant human, catalytic domain (amino acids 970-2527) GST-tagged, expressed in insect cells; GST; purchased Invitrogen Corporation PV4873; host or cells: insect cells
Type: biochemical
Procedure, shortened: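 Insect-cell-expressed enzyme (~5 nM), no activation, incubated 180 min at ~21 °C in 50 mM Tris-HCl pH 7.5, 0.1 mM EGTA, 1 mM DTT, 10 mM MgCl2 with 100 μM peptide substrate and [γ-33P]ATP. Reaction stopped with orthophosphoric acid, captured on P81 filters and counted; IC50 from 10 concentrations in duplicate.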

T1 sequence (Q5S007 970-2527): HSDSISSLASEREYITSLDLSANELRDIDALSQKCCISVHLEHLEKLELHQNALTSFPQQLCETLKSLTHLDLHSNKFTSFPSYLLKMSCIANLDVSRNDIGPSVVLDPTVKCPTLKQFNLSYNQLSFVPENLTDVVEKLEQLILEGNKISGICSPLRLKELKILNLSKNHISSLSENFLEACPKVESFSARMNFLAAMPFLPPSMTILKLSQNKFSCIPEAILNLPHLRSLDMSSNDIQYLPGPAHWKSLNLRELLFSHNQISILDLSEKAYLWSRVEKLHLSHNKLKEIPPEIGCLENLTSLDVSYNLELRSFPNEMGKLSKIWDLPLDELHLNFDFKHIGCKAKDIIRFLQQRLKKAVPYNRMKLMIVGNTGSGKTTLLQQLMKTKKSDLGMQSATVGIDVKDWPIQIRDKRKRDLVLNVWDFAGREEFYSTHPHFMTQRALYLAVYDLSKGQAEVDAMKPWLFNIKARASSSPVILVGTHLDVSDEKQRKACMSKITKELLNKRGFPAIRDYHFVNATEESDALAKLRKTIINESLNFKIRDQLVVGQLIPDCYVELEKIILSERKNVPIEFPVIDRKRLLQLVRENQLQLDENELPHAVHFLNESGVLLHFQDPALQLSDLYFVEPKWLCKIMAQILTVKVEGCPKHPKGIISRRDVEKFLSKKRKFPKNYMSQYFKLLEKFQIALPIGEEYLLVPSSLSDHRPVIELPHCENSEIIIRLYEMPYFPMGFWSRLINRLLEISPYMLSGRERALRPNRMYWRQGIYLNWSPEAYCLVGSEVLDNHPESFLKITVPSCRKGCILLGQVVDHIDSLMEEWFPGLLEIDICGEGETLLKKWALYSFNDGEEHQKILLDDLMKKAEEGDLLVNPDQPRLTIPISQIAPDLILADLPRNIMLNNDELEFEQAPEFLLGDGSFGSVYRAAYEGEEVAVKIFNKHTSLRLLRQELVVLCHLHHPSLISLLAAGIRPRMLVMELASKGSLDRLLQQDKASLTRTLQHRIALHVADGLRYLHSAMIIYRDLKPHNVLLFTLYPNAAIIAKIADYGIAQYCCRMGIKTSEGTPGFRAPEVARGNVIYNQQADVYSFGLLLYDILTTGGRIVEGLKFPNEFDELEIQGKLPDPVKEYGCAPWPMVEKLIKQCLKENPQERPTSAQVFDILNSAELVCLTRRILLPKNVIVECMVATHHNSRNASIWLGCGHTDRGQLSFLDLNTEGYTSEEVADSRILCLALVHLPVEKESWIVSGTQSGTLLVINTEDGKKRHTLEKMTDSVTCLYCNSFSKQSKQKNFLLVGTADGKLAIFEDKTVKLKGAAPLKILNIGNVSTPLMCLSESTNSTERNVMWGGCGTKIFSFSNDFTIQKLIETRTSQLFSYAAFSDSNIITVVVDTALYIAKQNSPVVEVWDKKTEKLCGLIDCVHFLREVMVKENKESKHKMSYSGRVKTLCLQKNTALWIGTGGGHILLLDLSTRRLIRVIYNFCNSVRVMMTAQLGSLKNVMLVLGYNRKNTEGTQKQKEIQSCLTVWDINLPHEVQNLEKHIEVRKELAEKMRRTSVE

SMILES	IC50
FC(F)(F)Oc1ccccc1-c1n[nH]c2ccnc(NC3CCCCC3)c12 [Example 151, Cyclohexyl-[3-(2-trifluoromethoxy-phenyl)-1H-pyrazolo[4,3-c]pyridin-4-yl]-amine]	1000 to 10000 nM
c1cc2[nH]nc(-c3ccc(N4CCOCC4)cc3)c2c(NC2CCCCC2)n1 [Example 152, Cyclohexyl-[3-(4-morpholin-4-yl-phenyl)-1H-pyrazolo[4,3-c]pyridin-4-yl]-amine]	100 to 1000 nM
O=C(c1cccc(-c2n[nH]c3ccnc(NC4CCCCC4)c23)c1)N1CCOCC1 [Example 153, [3-(4-Cyclohexylamino-1H-pyrazolo[4,3-c]pyridin-3-yl)-phenyl]-morpholin-4-yl-methanone]	1000 to 10000 nM
c1cc2[nH]nc(-c3ccc(N4CCOCC4)nc3)c2c(NC2CCCCC2)n1 [Example 154, Cyclohexyl-[3-(6-morpholin-4-yl-pyridin-3-yl)-1H-pyrazolo[4,3-c]pyridin-4-yl]-amine]	100 to 1000 nM
c1cc(-c2n[nH]c3ccnc(NC4CCCCC4)c23)cc(-n2cccn2)c1 [Example 155]	100 to 1000 nM
N#CCc1ccc(-c2n[nH]c3ccnc(NC4CCCCC4)c23)cc1 [Example 156, [4-(4-Cyclohexylamino-1H-pyrazolo[4,3-c]pyridin-3-yl)-phenyl]-acetonitrile]	100 to 1000 nM
FC(F)(F)c1ccc(-c2n[nH]c3ccnc(NC4CCCCC4)c23)cc1 [Example 157]	1000 to 10000 nM
N#Cc1ccc(-c2n[nH]c3ccnc(NC4CCCCC4)c23)cc1 [Example 158]	1000 to 10000 nM
Fc1cccc(-c2n[nH]c3ccnc(NC4CCCCC4)c23)c1F [Example 159]	1000 to 10000 nM
c1cc2[nH]nc(-c3cnc(N4CCOCC4)nc3)c2c(NC2CCCCC2)n1 [Example 160, Cyclohexyl-[3-(2-morpholin-4-yl-pyrimidin-5-yl)-1H-pyrazolo[4,3-c]pyridin-4-yl]-amine]	100 to 1000 nM
CN1CCOc2cc(-c3n[nH]c4ccnc(NC5CCCCC5)c34)ccc21 [Example 161, Cyclohexyl-[3-(4-methyl-3,4-dihydro-2H-1,4-benzoxazin-7-yl)-1H-pyrazolo[4,3-c]pyridin-4-yl]-amine]	100 to 1000 nM
Cn1cc(-c2n[nH]c3ccnc(NC4CCCCC4)c23)cn1 [Example 162, Cyclohexyl-[3-(1-methyl-1H-pyrazolo-4-yl)-1H-pyrazolo[4,3-c]pyridin-4-yl]-amine]	100 to 1000 nM
Fc1cc(-c2n[nH]c3ccnc(NC4CCCCC4)c23)cc(F)c1F [Example 163, Cyclohexyl-[3-(3,4,5-trifluoro-phenyl)-1H-pyrazolo[4,3-c]pyridin-4-yl]-amine]	1000 to 10000 nM
c1ccc2c(-c3n[nH]c4ccnc(NC5CCCCC5)c34)cncc2c1 [Example 164, Cyclohexyl-(3-isoquinolin-4-yl-1H-pyrazolo[4,3-c]pyridin-4-yl)-amine]	1000 to 10000 nM
CN(C)C(=O)c1ccc(-c2n[nH]c3ccnc(NC4CCCCC4)c23)cc1 [Example 165, 4-(4-Cyclohexylamino-1H-pyrazolo[4,3-c]pyridin-3-yl)-N,N-dimethyl-benzamide]	1000 to 10000 nM
Fc1cc(C(F)(F)F)ccc1-c1n[nH]c2ccnc(NC3CCCCC3)c12 [Example 166, Cyclohexyl-[3-(2-fluoro-4-trifluoromethyl-phenyl)-1H-pyrazolo[4,3-c]pyridin-4-yl]-amine]	1000 to 10000 nM

SMILES	IC50
Oc1nccc2[nH]nc(-c3ccoc3)c12 [Example 167, 3-Furan-3-yl-1H-pyrazolo[4,3-c]pyridin-4-ol]	100 to 1000 nM
O=C(CCc1n[nH]c2ccnc(NC3CCCCC3)c12)N1CCC(F)(F)CC1 [Example 168, 3-(4-Cyclohexylamino-1H-pyrazolo[4,3-c]pyridin-3-yl)-1-(4,4-difluoro-piperidin-1-yl)-propan-1-one]	100 to 1000 nM
O=C(CCc1n[nH]c2ccnc(NC3CCCCC3)c12)N1CCCCC1 [Example 169, 3-(4-Cyclohexylamino-1H-pyrazolo[4,3-c]pyridin-3-yl)-1-piperidin-1-yl-propan-1-one]	100 to 1000 nM
O=C(CCc1n[nH]c2ccnc(NC3CCCCC3)c12)N1CCCC(c2ccccc2)C1 (centres unmarked) [Example 170, 3-(4-Cyclohexylamino-1H-pyrazolo[4,3-c]pyridin-3-yl)-1-(3-phenyl-piperidin-1-yl)-propan-1-one]	100 to 1000 nM
O=C(CCc1n[nH]c2ccnc(NC3CCCCC3)c12)NC1CC1 [Example 171, 3-(4-Cyclohexylamino-1H-pyrazolo[4,3-c]pyridin-3-yl)-N-cyclopropyl-propionamide]	1000 to 10000 nM
O=C(CCc1n[nH]c2ccnc(NC3CCCCC3)c12)N1CCCC1 [Example 173, 3-(4-Cyclohexylamino-1H-pyrazolo[4,3-c]pyridin-3-yl)-1-pyrrolidin-1-yl-propan-1-one]	100 to 1000 nM
CN(C)C1CCN(C(=O)CCc2n[nH]c3ccnc(NC4CCCCC4)c23)CC1 [Example 174, 3-(4-Cyclohexylamino-1H-pyrazolo[4,3-c]pyridin-3-yl)-1-(4-dimethylamino-piperidin-1-yl)-propan-1-one]	1000 to 10000 nM
O=C(CCc1n[nH]c2ccnc(NC3CCCCC3)c12)N1CCOCC1 [Example 175, 3-(4-Cyclohexylamino-1H-pyrazolo[4,3-c]pyridin-3-yl)-1-morpholin-4-yl-propan-1-one]	100 to 1000 nM
O=C(CCc1n[nH]c2ccnc(NC3CCCCC3)c12)N1CCC(O)(c2ccccc2)CC1 [Example 176, 3-(4-Cyclohexylamino-1H-pyrazolo[4,3-c]pyridin-3-yl)-1-(4-hydroxy-4-phenyl-piperidin-1-yl)-propan-1-one]	100 to 1000 nM
CN1CCN(C(=O)CCc2n[nH]c3ccnc(NC4CCCCC4)c23)CC1 [Example 177, 3-(4-Cyclohexylamino-1H-pyrazolo[4,3-c]pyridin-3-yl)-1-(4-methyl-piperazin-1-yl)-propan-1-one]	100 to 1000 nM
COCCN1CCN(C(=O)CCc2n[nH]c3ccnc(NC4CCCCC4)c23)CC1 [Example 178, 3-(4-Cyclohexylamino-1H-pyrazolo[4,3-c]pyridin-3-yl)-1-[4-(2-methoxy-ethyl)-piperazin-1-yl]-propan-1-one]	100 to 1000 nM
O=C(CCc1n[nH]c2ccnc(NC3CCCCC3)c12)N1CCN(Cc2ccc(F)cc2F)CC1 [Example 179, 3-(4-Cyclohexylamino-1H-pyrazolo[4,3-c]pyridin-3-yl)-1-[4-(2,4-difluoro-benzyl)-piperazin-1-yl]-propan-1-one]	100 to 1000 nM
O=C(CCc1n[nH]c2ccnc(NC3CCCCC3)c12)N1CCN(c2cccc(Cl)c2)CC1 [Example 180, 1-[4-(3-Chloro-phenyl)-piperazin-1-yl]-3-(4-cyclohexylamino-1H-pyrazolo[4,3-c]pyridin-3-yl)-propan-1-one]	100 to 1000 nM
CCN(CC)C(=O)CCc1n[nH]c2ccnc(NC3CCCCC3)c12 [Example 181, 3-(4-Cyclohexylamino-1H-pyrazolo[4,3-c]pyridin-3-yl)-N,N-diethyl-propionamide]	100 to 1000 nM
CC(C)CN(C)C(=O)CCc1n[nH]c2ccnc(NC3CCCCC3)c12 [Example 182, 3-(4-Cyclohexylamino-1H-pyrazolo[4,3-c]pyridin-3-yl)-N-isobutyl-N-methyl-propionamide]	100 to 1000 nM
CN(Cc1ccccc1)C(=O)CCc1n[nH]c2ccnc(NC3CCCCC3)c12 [Example 183, N-Benzyl-3-(4-cyclohexylamino-1H-pyrazolo[4,3-c]pyridin-3-yl)-N-methyl-propionamide]	100 to 1000 nM

Source: US20170320870A1 (Medical Research Council Technology, priority 2009, published 2017)
